The values below come from patent US20250333410A1, “COMPOUND FOR INHIBITING OR DEGRADING BCL6 AND USE THEREOF IN PHARMACEUTICS” (XIZANG HAISCO PHARMACEUTICAL CO., LTD., priority 2022, published 2025).

Series [1] in a line: Pharmacokinetic test in mice. The following applies: i.g. 5 mg/kg; for AUC(0-t): male, ICR, mouse, po, mice plasma; for F: mice. It counts as in vivo, ICR mice. On the procedure: 3. Pharmacokinetic Test in Mice
1.1 Experimental animal: male ICR mice, 25-30 g, 6 mice/compound, purchased from Chengdu Ddossy Experimental Animals Co., Ltd.
1.2 Experimental design: on the day of the experiment, the ICR mice were randomly grouped according to their body weights. The animals were fasted but with water available for 12 to 14 h one day before the administration, and were fed 4 h after the administration.

For series [2], the target named is T1, Bcl6 (Homo sapiens (Human), UniProt P41182). The series is described as follows: Bcl-6 protein degradation experiment in OCI-LY1 cells. The series is classed as cell-based. Conditions: 24 hours. On the procedure:
4. Bcl-6 Protein Degradation Experiment in OCI-LY1 Cells
(§1) OCI-LY1 cells purchased from DSMZ were placed in an IMDM complete medium (containing 10% fetal bovine serum, 100 U/mL penicillin, 100 μg/mL streptomycin and 50 µM mercaptoethanol) and cultured at 37° C. and 5% CO2. The cells in the logarithmic growth phase were collected, and the cell suspension was adjusted to an appropriate density with the culture medium and added to a 6-well cell culture plate at a volume of 1 mL/well. The compounds to be tested were prepared to 2-fold the final concentration, 1 mL of the compounds at different concentrations were added to administration wells, a medium containing 0.2% DMSO was added to control wells, and the plate was incubated at 37° C. for 24 hours. The cells were collected into a 1.5 mL centrifuge tube, 25 L of RIPA lysis buffer (containing 1× protease inhibitor cocktail) was added, and the cells were lysed on ice for 15 minutes and centrifuged at 12000 rpm/min at 4° C. for 10 minutes. The supernatant was collected and the protein content was determined using the BCA method. The protein sample to be tested was diluted to 0.8 mg/mL, Bcl6 was detected using a fully automated protein expression quantitative analyzer (ProteinSimple), and the internal reference protein was R-actin (both antibodies were from CST). The software (Compass for SW) of the fully automated protein expression quantitative analyzer was used to process the raw data and calculate the peak area and the Bcl6 expression rate relative to the control group. DC50 values were calculated using a four-parameter non-linear fitting model in Graphpad 8.3.0 software.

For series [3], the target named is T1, Bcl6. Kind of series: Bcl-6 protein degradation experiment in Farage cells. The following applies: 24 hours. It counts as cell-based. The protocol: 2. Bcl-6 Protein Degradation Experiment in Farage Cells
as §1, with “Farage cells” for “OCI-LY1 cells”, “from ATCC” for “from DSMZ”, “an RPMI-1640” for “an IMDM”, “U/mL penicillin and” for “U/mL penicillin,”, “μg/mL streptomycin)” for “μg/mL streptomycin and 50 µM mercaptoethanol)”, “25 μL” for “25 L”

For series [4], the target named is hERG potassium ion channel (Homo sapiens (Human), UniProt Q12809). Kind of series: Test for hERG potassium ion channel (manual patch-clamp, CHO cells). It counts as cell-based. Conditions: CHO cells stably expressing hERG, whole cell patch-clamp; read-out: IC50 of inhibitory effects on hERG potassium channel current. The source says:
8. Test for hERG Potassium Ion Channel
Experimental platform: electrophysiological manual patch-clamp system
Cell line: Chinese hamster ovary (CHO) cell lines stably expressing hERG potassium ion channel
Experimental method: in CHO (Chinese Hamster Ovary) cells stably expressing hERG potassium channel, the whole cell patch-clamp technique was used to record hERG potassium channel current at room temperature. The glass microelectrode was made of a glass electrode blank (BF150-86-10, Sutter) by a puller. The tip resistance after filling the liquid in the electrode was about 2-5 MΩ. The glass microelectrode can be connected to the patch-clamp amplifier by inserting the glass microelectrode into an amplifier probe. The clamping voltage and data recording were controlled and recorded by the pClamp 10 software through a computer. The sampling frequency was 10 kHz, and the filtering frequency was 2 kHz. After the whole cell records were obtained, the cells were clamped at −80 mV, and the step voltage that induced the hERG potassium current (IhERG) was depolarized from −80 mV to +20 mV for 2 s, then repolarized to −50 mV, and returned to −80 mV after 1 s. This voltage stimulation was given every 10 s, and the administration process was started after the hERG potassium current was confirmed to be stable (at least 1 minute). The compound was administered for at least 1 minute at each test concentration, and at least 2 cells (n≥2) were tested at each concentration.
Data processing: data analysis processing was carried out by using pClamp 10, GraphPad Prism 5 and Excel software. The inhibition degree of hERG potassium current (peak value of hERG tail current induced at −50 mV) at different compound concentrations was calculated by the following formula: […]
where Inhibition % represents the percentage of inhibition of hERG potassium current by the compound, and I and Io represent the amplitude of hERG potassium current after and before the administration, respectively.
Compound IC50 was calculated using GraphPad Prism 5 software by fitting according to the following equation: […]
Among the equation, X represents the Log value of the tested concentration of the test sample, Y represents the inhibition percentage at the corresponding concentration, and Bottom and Top represent the minimum and maximum inhibition percentage, respectively.

What is called AUC(0-t) is exposure summed from dosing to a finite time, without extrapolation to infinity. A lower AUC(0-t) goes with less exposure. As usually defined, the DC50 is the concentration giving 50% degradation. Low values mean a more potent degrader, high ones a less potent degrader. A word on the IC50: it is the concentration at which inhibition is half-maximal.

Sequence of hERG potassium ion channel (Q12809 whole entry): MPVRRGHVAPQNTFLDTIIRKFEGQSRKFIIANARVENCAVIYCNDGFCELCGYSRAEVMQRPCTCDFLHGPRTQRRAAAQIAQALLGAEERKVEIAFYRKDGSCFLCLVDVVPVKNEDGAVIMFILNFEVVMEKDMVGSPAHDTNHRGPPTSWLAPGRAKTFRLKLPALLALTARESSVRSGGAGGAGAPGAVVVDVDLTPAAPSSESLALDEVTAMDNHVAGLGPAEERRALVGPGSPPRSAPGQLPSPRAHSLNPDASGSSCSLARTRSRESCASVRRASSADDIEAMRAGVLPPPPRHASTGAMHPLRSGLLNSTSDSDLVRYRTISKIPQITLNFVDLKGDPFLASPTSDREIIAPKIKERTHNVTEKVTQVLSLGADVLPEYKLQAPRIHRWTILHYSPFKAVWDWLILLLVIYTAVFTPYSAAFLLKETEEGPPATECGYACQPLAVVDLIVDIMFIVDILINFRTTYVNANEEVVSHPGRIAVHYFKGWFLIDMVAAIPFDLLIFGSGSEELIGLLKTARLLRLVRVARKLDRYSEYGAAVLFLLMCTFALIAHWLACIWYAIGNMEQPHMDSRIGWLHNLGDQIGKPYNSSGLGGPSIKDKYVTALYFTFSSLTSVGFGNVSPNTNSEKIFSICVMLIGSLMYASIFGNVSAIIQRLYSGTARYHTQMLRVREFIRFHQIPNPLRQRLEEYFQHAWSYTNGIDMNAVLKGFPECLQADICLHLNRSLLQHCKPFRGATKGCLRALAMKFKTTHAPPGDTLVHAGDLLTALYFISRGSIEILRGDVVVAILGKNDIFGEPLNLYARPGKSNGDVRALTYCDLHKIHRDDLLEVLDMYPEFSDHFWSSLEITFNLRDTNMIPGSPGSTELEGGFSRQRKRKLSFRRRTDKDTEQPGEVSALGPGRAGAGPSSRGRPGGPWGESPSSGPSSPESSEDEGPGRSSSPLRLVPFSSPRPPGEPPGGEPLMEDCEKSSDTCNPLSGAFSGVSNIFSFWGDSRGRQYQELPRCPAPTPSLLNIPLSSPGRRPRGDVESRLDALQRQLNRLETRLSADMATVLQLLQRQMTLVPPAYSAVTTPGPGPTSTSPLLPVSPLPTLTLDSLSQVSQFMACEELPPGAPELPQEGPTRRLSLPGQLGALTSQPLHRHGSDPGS

As to `CC(=O)COc1cc2cc(Nc3nc(N4CCC(N5CCN(c6ccc(C7CCC(=O)NC7=O)cc6)CC5)CC4)ncc3Cl)ccc2n(C)c1=O` (stereo not shown) [Compound 15], in series [1], the exposure AUC(0-t) was over 1000 ng·h/mL. On Bcl6 [2], the 50% degradation concentration (DC50) was under 100 nM.
On Bcl6 [2], `CC(=O)COc1cc2cc(Nc3nc(N4CCC(C5CCN(c6ccc(C7CCC(=O)NC7=O)cc6)CC5)CC4)ncc3Cl)ccc2n(C)c1=O` (stereo not shown) [Compound 18] returned a 50% degradation concentration (DC50) of under 100 nM.
`CNC(=O)COc1cc2cc(Nc3nc(N4CCC(CN5CCn6c(cc7cc(C8CCC(=O)NC8=O)c(F)cc76)C5)CC4)ncc3Cl)ccc2n(C(C)C)c1=O` (stereo not shown) [Trifluoroacetate of compound 77] showed a DC50 on Bcl6 [3] of under 10 nM. In series [4], the 50% inhibitory concentration (IC50) was over 40000 nM.
On to `[2H]C([2H])([2H])n1c(=O)c(OCC(=O)NC)cc2cc(Nc3nc(N4CCC(CN5CCN6c7cc(F)c(C8CCC(=O)NC8=O)cc7CC[C@H]6C5)CC4)ncc3Cl)ccc21` (stereo partly shown) [Trifluoroacetate of compound 65], for which the DC50 on Bcl6 [3] was under 10 nM. This molecule showed an AUC(0-t) in series [1] of over 1000 ng·h/mL.
At Bcl6 [3], `CNC(=O)COc1cc2cc(Nc3nc(N4CCC(CN5CCn6c(nc7cc(F)c(C8CCC(=O)NC8=O)cc76)C5)CC4)ncc3Cl)ccc2n(C(C)C)c1=O` (stereo not shown) [Trifluoroacetate of compound 75] gave a DC50 of under 10 nM. For the same molecule, the IC50 in series [4] is over 40000 nM.
In turn, `CNC(=O)COc1cc2cc(Nc3nc(N4CCC(CN5CCN6c7cc(F)c(C8CCC(=O)NC8=O)cc7CC[C@@H]6C5)CC4)ncc3Cl)ccc2n(C(C)C)c1=O` (stereo partly shown) [Trifluoroacetate of compound 56] returned a DC50 on Bcl6 [3] of under 10 nM. The same molecule had an exposure AUC(0-t) in series [1] of over 1000 ng·h/mL.
In series [1], `CNC(=O)COc1cc2cc(Nc3nc(N4CCN(CC5CCN(c6cccc7c6C(=O)N(C6CCC(=O)NC6=O)C7=O)CC5)CC4)ncc3Cl)ccc2n(C)c1=O` (stereo not shown) [Control compound 1, reference compound] registered an exposure AUC(0-t) of under 100 ng·h/mL and an F of under 5%.
Molecule `CC(=O)COc1cc2cc(Nc3nc(N4CCC(CN5CCN(c6ccc(C7CCC(=O)NC7=O)cc6)CC5)CC4)ncc3Cl)ccc2n(C)c1=O` (stereo not shown) [Trifluoroacetate of compound 13] showed a DC50 on Bcl6 [3] of under 10 nM. Moreover, the AUC(0-t) in series [1] was over 1000 ng·h/mL.
The matching figures for `CNC(=O)COc1cc2cc(Nc3nc(N4CCC(CN5CCN(c6ccc(C7CCC(=O)NC7=O)cc6)CC5)CC4)ncc3Cl)ccc2n(C)c1=O` (stereo not shown) [Trifluoroacetate of compound 14]: under 10 nM and over 1000 ng·h/mL.
`[2H]C([2H])([2H])NC(=O)COc1cc2cc(Nc3nc(N4CCC(CN5CCN6c7cc(F)c(C8CCC(=O)NC8=O)cc7CC[C@@H]6C5)CC4)ncc3Cl)ccc2n(C)c1=O` (stereo partly shown) [Trifluoroacetate of compound 64] yielded a half-maximal degradation concentration (DC50) at Bcl6 [3] of under 10 nM. In addition, in series [1], the area under the curve AUC(0-t) is over 1000 ng·h/mL.
Molecule `[2H]C([2H])([2H])NC(=O)COc1cc2cc(Nc3nc(N4CCC(CN5CCN6c7cc(F)c(C8CCC(=O)NC8=O)cc7CC[C@H]6C5)CC4)ncc3Cl)ccc2n(C([2H])([2H])[2H])c1=O` (stereo partly shown) [Trifluoroacetate of compound 66] showed a half-maximal degradation concentration (DC50) on Bcl6 [3] of under 10 nM. In series [1], the AUC(0-t) was over 1000 ng·h/mL and the F is recorded as over 50%.
Consider `CNC(=O)COc1cc2cc(Nc3nc(N4CCC(CN5CCN6c7cc(F)c(C8CCC(=O)NC8=O)cc7CC[C@H]6C5)CC4)ncc3Cl)ccc2n(C(C)C)c1=O` (stereo partly shown) [Trifluoroacetate of compound 57], for which the 50% degradation concentration (DC50) on Bcl6 [3] is under 10 nM; at Bcl6 [2] it was under 100 nM; at Bcl6 [2] (listed as trifluoroacetate of compound 57), under 5 nM. The molecule further had an AUC(0-t) in series [1] of over 1000 ng·h/mL.
At Bcl6 [2], `CNC(=O)COc1cc2cc(Nc3nc(N4CCC(N5CCN(c6ccc(C7CCC(=O)NC7=O)cc6)CC5)CC4)ncc3Cl)ccc2n(C)c1=O` (stereo not shown) [Compound 16] had a DC50 of under 100 nM.
Consider `CNC(=O)COc1cc2cc(Nc3nc(N4CCC(O[C@H]5C[C@H](N6CCN7c8cc(F)c(C9CCC(=O)NC9=O)cc8CC[C@H]7C6)C5)CC4)ncc3Cl)ccc2n(C(C)C)c1=O` (stereo partly shown) [Trifluoroacetate of compound 58], for which the DC50 on Bcl6 [3] was under 10 nM; on Bcl6 [2] it was under 100 nM; on Bcl6 [2] (listed as trifluoroacetate of compound 58), under 5 nM. The AUC(0-t) in series [1] was over 1000 ng·h/mL. Besides, the F in series [1] is over 50%.
As to `CC(=O)COc1cc2cc(Nc3nc(N4CCC(CN5CCN(c6cccc7c6n(C)c(=O)n7C6CCC(=O)NC6=O)CC5)CC4)ncc3Cl)ccc2n(C)c1=O` (stereo not shown) [Compound 10], the 50% degradation concentration (DC50) on Bcl6 [3] was under 10 nM.
Turning to `CNC(=O)COc1cc2cc(Nc3nc(N4CCN(CC5CCN(c6ccc(C7CCC(=O)NC7=O)c(F)c6)CC5)CC4)ncc3Cl)ccc2n(C)c1=O` (stereo not shown) [Trifluoroacetate of compound 24], the DC50 on Bcl6 [3] was under 10 nM; at Bcl6 [2], under 100 nM; on Bcl6 [2] (listed as trifluoroacetate of compound 24) it was under 5 nM. In series [1], this molecule registered an AUC(0-t) of over 1000 ng·h/mL. Moreover, in series [1], the F is recorded as over 50%.
On Bcl6 [3], `[2H]C([2H])([2H])n1c(=O)c(OCC(=O)NC)cc2cc(Nc3nc(N4CCC(CN5CCN6c7cc(F)c(C8CCC(=O)NC8=O)cc7CC[C@@H]6C5)CC4)ncc3Cl)ccc21` (stereo partly shown) [Trifluoroacetate of compound 62] had a DC50 of under 10 nM. In series [1], this molecule had an AUC(0-t) of over 1000 ng·h/mL and an F of over 50%.
On Bcl6 [3], `CNC(=O)COc1cc2cc(Nc3nc(N4CCN(CC5CCN(c6ccc(C7CCC(=O)NC7=O)cc6F)CC5)CC4)ncc3Cl)ccc2n(C)c1=O` (stereo not shown) [Trifluoroacetate of compound 41] registered a 50% degradation concentration (DC50) of under 10 nM.
As to `CCn1c(=O)c(OCC(=O)NC)cc2cc(Nc3nc(N4CCC(O[C@H]5C[C@H](N6CCN7c8cc(F)c(C9CCC(=O)NC9=O)cc8CC[C@H]7C6)C5)CC4)ncc3Cl)ccc21` (stereo partly shown) [Trifluoroacetate of compound 61], the half-maximal degradation concentration (DC50) on Bcl6 [3] is under 10 nM.
With `[2H]C([2H])([2H])NC(=O)COc1cc2cc(Nc3nc(N4CCC(CN5CCN6c7cc(F)c(C8CCC(=O)NC8=O)cc7CC[C@@H]6C5)CC4)ncc3Cl)ccc2n(C([2H])([2H])[2H])c1=O` (stereo partly shown) [Trifluoroacetate of compound 63], on Bcl6 [3], the half-maximal degradation concentration (DC50) was under 10 nM. Moreover, the AUC(0-t) in series [1] is over 1000 ng·h/mL.
In the case of `CNC(=O)COc1cc2cc(Nc3nc(N4CCC(CN5CCN(c6cccc7c6n(C)c(=O)n7C6CCC(=O)NC6=O)CC5)CC4)ncc3Cl)ccc2n(C)c1=O` (stereo not shown) [Compound 9], the DC50 on Bcl6 [3] was under 10 nM.
